The target of test [1] is T1, Corticotropin-releasing factor receptor 2/Corticotropin-releasing factor-binding protein (Homo sapiens, UniProt P24387+Q13324).
T1 sequence (Q13324 whole entry): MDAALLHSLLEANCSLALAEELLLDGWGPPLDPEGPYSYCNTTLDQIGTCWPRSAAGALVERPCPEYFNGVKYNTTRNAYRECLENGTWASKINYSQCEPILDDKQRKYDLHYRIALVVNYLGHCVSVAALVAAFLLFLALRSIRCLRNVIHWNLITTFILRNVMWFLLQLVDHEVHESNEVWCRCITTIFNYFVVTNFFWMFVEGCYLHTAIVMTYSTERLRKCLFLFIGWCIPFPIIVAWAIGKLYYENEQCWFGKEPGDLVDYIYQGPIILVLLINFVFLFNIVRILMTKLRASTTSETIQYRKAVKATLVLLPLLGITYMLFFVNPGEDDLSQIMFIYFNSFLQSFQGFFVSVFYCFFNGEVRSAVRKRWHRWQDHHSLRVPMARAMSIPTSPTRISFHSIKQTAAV
T1 sequence (P24387 whole entry): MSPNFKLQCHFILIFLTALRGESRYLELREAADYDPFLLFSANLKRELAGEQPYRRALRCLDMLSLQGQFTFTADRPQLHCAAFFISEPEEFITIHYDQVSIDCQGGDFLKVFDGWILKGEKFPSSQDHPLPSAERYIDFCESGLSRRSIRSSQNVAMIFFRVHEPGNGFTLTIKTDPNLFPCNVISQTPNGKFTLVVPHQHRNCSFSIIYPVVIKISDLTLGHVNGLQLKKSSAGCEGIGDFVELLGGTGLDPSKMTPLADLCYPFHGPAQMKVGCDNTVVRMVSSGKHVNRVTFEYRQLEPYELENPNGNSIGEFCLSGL
In words: Dose Response confirmation of uHTS hits for small molecule antagonists of the CRF-binding protein and CRF-R2 receptor complex. The settings on record: read-out: IC50_Mean. The test is classed as functional.

In test [2] the target is T2, Small ubiquitin-related modifier 1 (Homo sapiens, UniProt P63165). The experiment in a line: inhibitors of SUMO1 peptide binding, dose response, biochemical, fluorescence polarization, uHTS hits (AID 624382). Type of test: functional. The settings on record: read-out: IC50_Mean.
T2 sequence (P63165 whole entry, the tested form may be a part): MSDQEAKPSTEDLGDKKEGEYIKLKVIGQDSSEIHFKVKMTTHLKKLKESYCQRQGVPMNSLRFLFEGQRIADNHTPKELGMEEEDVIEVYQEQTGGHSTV
The target of test [3] is T3, Fatty acid synthase (Homo sapiens, UniProt P49327). In words: FAS thioesterase domain inhibitors, dose response, biochemical, kinetic fluorescence intensity (AID 624326).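 Also: rate of fluorescence rise from hydrolysis of a fluorogenic O-methyl fluorescein ester substrate.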 Type of test: functional.
T3 sequence (P49327 whole entry, the tested form may be a part): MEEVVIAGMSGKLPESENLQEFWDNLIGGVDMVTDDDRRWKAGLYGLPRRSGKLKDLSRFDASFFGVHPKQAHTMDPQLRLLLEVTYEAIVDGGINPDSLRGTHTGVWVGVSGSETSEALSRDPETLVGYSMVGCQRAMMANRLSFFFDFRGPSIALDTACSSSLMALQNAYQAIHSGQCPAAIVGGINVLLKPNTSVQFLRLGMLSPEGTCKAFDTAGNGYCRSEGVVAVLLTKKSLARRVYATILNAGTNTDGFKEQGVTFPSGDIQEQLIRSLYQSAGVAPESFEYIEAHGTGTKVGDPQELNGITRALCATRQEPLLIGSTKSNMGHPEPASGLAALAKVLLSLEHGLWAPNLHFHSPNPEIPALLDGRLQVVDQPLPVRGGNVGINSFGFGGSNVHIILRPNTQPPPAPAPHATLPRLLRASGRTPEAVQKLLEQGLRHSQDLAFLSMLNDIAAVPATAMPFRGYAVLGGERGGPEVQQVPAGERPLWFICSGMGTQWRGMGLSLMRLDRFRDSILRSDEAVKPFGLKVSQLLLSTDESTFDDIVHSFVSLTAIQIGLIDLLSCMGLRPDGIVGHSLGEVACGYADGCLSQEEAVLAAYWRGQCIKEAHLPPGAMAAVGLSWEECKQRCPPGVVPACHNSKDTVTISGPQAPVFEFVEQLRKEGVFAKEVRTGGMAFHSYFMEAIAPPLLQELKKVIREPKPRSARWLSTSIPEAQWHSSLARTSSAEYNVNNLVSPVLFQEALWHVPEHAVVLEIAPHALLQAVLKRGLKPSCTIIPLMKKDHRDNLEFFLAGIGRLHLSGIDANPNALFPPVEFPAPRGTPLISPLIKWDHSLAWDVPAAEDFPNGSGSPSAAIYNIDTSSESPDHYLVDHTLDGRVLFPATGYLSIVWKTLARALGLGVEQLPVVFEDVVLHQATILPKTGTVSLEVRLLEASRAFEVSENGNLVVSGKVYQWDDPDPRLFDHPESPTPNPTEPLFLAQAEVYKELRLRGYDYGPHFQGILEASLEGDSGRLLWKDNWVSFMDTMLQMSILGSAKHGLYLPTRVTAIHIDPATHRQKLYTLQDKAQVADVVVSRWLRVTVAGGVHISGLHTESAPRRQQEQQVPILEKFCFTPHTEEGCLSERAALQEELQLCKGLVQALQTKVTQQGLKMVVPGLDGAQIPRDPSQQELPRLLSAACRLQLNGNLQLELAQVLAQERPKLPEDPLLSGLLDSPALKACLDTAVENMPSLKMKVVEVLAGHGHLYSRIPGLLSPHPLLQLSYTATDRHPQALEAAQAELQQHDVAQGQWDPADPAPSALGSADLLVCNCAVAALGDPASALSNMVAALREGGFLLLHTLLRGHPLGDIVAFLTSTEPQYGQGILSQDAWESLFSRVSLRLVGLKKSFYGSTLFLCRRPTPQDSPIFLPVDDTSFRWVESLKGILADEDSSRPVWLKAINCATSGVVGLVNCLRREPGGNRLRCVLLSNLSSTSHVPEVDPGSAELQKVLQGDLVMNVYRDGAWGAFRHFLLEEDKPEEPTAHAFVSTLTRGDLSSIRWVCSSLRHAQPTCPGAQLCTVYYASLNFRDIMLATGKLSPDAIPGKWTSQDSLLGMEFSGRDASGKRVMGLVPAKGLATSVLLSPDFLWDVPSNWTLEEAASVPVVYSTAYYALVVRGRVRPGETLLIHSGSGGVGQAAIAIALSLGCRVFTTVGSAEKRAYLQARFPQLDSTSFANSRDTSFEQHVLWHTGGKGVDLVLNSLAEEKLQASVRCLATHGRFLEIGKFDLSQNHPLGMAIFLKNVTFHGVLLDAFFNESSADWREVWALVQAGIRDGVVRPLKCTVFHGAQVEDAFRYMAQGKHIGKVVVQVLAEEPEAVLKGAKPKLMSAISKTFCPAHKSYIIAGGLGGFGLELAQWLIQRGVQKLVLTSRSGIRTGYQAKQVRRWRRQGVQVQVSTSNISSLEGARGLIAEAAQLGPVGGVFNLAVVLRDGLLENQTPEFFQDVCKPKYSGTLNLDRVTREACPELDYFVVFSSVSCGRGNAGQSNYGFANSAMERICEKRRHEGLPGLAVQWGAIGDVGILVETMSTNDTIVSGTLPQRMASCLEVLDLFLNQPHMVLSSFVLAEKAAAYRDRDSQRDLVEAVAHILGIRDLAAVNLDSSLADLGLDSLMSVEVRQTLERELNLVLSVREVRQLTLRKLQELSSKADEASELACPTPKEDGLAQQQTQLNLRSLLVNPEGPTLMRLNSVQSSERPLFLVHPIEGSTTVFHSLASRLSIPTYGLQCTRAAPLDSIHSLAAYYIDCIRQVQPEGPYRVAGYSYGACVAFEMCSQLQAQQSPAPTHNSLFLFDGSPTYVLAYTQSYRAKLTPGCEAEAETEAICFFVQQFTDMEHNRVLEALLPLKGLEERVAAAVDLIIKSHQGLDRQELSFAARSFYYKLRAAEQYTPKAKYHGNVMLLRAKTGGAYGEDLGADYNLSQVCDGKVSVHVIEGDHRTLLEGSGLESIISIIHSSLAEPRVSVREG
In test [4] the target is DNA (cytosine-5)-methyltransferase 1 (Homo sapiens, UniProt P26358). In words: DNMT1 methyltransferase inhibitors, confirmation, biochemical, fluorescent molecular beacon (AID 602386). The test is classed as functional.
DNA (cytosine-5)-methyltransferase 1, sequence (P26358 whole entry): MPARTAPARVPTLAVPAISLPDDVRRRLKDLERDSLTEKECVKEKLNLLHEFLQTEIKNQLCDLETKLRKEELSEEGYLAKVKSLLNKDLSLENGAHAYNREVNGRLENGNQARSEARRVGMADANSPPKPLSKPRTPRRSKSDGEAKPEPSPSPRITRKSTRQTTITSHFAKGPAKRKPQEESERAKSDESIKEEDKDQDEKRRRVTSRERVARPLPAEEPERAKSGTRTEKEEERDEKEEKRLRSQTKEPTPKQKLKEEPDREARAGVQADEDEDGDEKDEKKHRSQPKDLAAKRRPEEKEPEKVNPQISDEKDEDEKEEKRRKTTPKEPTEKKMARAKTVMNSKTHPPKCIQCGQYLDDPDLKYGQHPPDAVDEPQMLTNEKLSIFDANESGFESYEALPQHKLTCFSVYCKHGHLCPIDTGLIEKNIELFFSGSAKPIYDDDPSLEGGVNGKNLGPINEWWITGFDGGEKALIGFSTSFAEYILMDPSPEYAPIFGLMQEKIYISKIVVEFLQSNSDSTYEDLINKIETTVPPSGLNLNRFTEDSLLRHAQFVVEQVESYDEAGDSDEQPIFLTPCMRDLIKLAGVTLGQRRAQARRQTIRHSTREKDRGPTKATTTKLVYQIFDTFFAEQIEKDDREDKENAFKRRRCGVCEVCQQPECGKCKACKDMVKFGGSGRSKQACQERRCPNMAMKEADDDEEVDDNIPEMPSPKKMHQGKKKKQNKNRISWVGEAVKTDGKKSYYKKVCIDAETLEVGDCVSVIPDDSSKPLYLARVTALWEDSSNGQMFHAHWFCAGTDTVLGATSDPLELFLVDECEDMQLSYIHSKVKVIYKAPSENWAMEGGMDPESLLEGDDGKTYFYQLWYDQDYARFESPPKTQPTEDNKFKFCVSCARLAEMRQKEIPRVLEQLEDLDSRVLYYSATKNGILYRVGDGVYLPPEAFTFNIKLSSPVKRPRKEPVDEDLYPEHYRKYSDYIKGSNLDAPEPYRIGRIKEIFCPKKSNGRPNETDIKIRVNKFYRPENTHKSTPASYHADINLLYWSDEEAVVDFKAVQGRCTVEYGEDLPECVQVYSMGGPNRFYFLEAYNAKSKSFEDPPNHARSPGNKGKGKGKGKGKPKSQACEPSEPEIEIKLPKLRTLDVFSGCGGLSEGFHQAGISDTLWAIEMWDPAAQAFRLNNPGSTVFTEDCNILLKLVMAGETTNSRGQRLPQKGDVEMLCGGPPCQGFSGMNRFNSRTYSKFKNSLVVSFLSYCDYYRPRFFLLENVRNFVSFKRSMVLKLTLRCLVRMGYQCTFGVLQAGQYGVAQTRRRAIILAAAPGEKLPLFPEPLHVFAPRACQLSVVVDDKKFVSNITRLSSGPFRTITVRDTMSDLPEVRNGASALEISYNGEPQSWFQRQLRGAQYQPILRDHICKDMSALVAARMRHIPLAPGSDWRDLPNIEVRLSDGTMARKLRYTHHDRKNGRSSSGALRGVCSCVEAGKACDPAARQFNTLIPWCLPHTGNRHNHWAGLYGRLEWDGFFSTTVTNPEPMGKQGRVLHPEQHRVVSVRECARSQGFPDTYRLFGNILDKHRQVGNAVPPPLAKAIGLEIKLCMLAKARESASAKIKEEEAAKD
Test [5] can be described thus: CRF-BP/CRF-R2 complex antagonists, dose response, cell-based, uHTS hits, 384-well (AID 651639). The test is classed as functional, Homo sapiens. The conditions noted are these: read-out: IC50_Mean.
The target of test [6] is T3, Fatty acid synthase. The experiment in a line: FAS thioesterase domain inhibitors, dose response, biochemical, endpoint fluorescence intensity, uHTS hits (AID 624327).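 Also: fluorescence from hydrolysis of an O-methyl fluorescein acyl ester substrate by the enzyme.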 Type of test: functional.
In test [7] the target is T4, Small ubiquitin-related modifier 2 (Homo sapiens, UniProt P61956). The experiment in a line: inhibitors of SUMO2 protein-protein interaction, dose response, selectivity assay for SUMO1 interaction inhibitor project, biochemical, FRET, human SUMO2, uHTS hits (AID 624384). The settings on record: read-out: IC50_Mean. Type of test: functional.
T4 sequence (P61956 whole entry): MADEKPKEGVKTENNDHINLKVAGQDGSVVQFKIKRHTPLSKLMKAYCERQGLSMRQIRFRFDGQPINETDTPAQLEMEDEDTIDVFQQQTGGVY
For test [8], the target named is T2, Small ubiquitin-related modifier 1. In words: inhibitors of SUMO1 partner interactions, dose response, biochemical, FRET (AID 624383). Type of test: functional. The settings on record: read-out: IC50_Mean.
For test [9], the target named is NAD-dependent protein deacylase sirtuin-5, mitochondrial (Homo sapiens, UniProt Q9NXA8). The experiment in a line: SIRT5 desuccinylase inhibitors, dose response, biochemical, fluorescence imaging, cherry-pick, set 5 (AID 720591).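 Also: desuccinylation of succinyl peptide AMC substrate read as fluorescence after trypsin release; potency of inhibitors that lower fluorescence and may act on trypsin instead.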
NAD-dependent protein deacylase sirtuin-5, mitochondrial, sequence (Q9NXA8 whole entry): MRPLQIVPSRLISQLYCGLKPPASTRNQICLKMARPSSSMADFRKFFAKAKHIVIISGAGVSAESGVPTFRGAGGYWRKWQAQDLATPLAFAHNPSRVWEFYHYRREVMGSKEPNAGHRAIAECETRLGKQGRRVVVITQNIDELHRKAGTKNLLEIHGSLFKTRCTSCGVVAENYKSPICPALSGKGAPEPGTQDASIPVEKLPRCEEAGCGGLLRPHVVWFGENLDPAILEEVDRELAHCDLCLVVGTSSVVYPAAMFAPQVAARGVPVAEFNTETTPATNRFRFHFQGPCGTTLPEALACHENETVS
For test [10], the target named is T4, Small ubiquitin-related modifier 2. The experiment in a line: SUMO2–SIM peptide binding inhibitors, dose response, selectivity assay for SUMO1 interaction inhibitor project, biochemical, fluorescence polarization, uHTS hits (AID 624385). The test is classed as functional. The settings on record: read-out: IC50_Mean. For orientation: Fluorescence polarisation rises when a labelled molecule tumbles more slowly, as on binding a larger partner.

The target of test [11] is T1, Corticotropin-releasing factor receptor 2/Corticotropin-releasing factor-binding protein. The experiment in a line: activators of CRF receptor 2 with binding protein – uHTS hits, confirmation (AID 602473). The test is classed as functional. The settings on record: read-out: EC50_Mean.
Test [12] in a line: Late stage counterscreen for inhibitors of Trypanosoma brucei methionyl tRNA synthetase (MetRS): Luminescence-based cell-based high throughput dose response assay to identify compounds that are cytotoxic to Jurkat human T lymphocyte cells. The test is classed as functional. (Counterscreens check selectivity or assay interference.)
Test [13] in a line: Counterscreen for inhibitors of Trypanosoma brucei methionyl tRNA synthetase (MetRS): Luminescence-based cell-based high throughput dose response assay to identify compounds that are cytotoxic to Jurkat human T lymphocyte cells. The test is classed as functional.
The target in test [14] is T5, Methionyl-tRNA synthetase, putative (Trypanosoma brucei brucei, UniProt Q38C91).
T5 sequence (Q38C91 whole entry): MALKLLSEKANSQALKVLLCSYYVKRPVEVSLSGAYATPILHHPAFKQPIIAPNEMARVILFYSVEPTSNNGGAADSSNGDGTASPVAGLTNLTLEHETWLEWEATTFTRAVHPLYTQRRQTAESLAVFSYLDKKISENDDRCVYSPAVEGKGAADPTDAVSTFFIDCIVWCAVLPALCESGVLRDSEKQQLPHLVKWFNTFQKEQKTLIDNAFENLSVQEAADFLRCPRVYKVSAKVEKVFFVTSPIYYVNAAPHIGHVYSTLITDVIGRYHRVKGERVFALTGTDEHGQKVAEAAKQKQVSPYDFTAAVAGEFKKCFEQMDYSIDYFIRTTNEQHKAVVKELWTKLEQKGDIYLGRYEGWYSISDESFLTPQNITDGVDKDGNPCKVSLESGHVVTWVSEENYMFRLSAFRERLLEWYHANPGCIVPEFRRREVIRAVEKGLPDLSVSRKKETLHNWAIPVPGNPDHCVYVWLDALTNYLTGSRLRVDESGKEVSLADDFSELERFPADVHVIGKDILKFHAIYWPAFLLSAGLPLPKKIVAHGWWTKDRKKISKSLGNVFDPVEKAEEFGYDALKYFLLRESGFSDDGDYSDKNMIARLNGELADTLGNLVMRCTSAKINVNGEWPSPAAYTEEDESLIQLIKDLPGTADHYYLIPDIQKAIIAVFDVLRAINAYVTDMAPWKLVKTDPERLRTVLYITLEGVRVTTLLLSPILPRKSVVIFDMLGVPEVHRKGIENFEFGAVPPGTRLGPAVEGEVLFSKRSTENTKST
The test is classed as functional, Trypanosoma brucei brucei strain 927/4 GUTat10.1.

The target in test [15] is T5, Methionyl-tRNA synthetase, putative. Type of test: functional, Trypanosoma brucei brucei strain 927/4 GUTat10.1. This is another data set of the same source.
Test [16] can be described thus: HEK293 cell cytotoxicity, dose response, cytotoxicity control, plate reader, cherry-picked samples (AID 743446). Type of test: functional, cell-based.
Test [17] is described as follows: LGR2 antagonists, dose response, cell-based, HEK293, CRE-luciferase reporter, cherry pick, set 2 (AID 743343).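 Also: transfected cells were stimulated with diluted bursicon conditioned medium after compound addition.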 Type of test: functional.
Test [18] is described as follows: HepG2 cell cytotoxicity, dose response, cytotoxicity control, plate reader, cherry-pick, antagonist series (AID 743416). Type of test: functional, cell-based.
Test [19] can be described thus: NIH:OVCAR-3 ovarian cancer cell cytotoxicity, dose response, PAX8 inhibitor project, plate reader, dry powder samples (AID 743044). Type of test: functional, cell-based.
Test [20] can be described thus: P. falciparum 3D7-ScDHODH growth inhibitors, dose response, SYBR Green, dry powder samples (AID 1159570).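 Also: parasite growth measured after 72 hours of compound exposure.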 The test is classed as functional, cell-based.
Test [21] can be described thus: IGROV1 ovarian cancer cell cytotoxicity, dose response, PAX8 inhibitor project, plate reader, dry powder samples (AID 743043). Type of test: functional, cell-based. The conditions noted are these: IGROV-1.
A short description of test [22]: P. falciparum Dd2 growth inhibitors, dose response, SYBR Green, dry powder samples (AID 1159566).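 Also: potency for growth inhibition with lower SYBR green DNA signal.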 Type of test: functional, cell-based.
The nature of test [23]: A549 cell cytotoxicity, dose response, cytotoxicity control, plate reader, cherry-pick, antagonist series (AID 743412). Type of test: functional, cell-based.
Test [24] can be described thus: cytotoxicity in OVCAR8 ovarian cancer cells, dose response, PAX8 project, cell-based, plate reader, dry powder samples (AID 743197). The test is classed as functional. The conditions noted are these: OVCAR-8.
Test [25] is described as follows: P. falciparum ATP4 D1247Y mutant growth inhibitors, dose response, NITD609-resistant line, SYBR Green, dry powder (AID 1159571).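 Also: parasites synchronized at ring stage by sorbitol before testing.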 The test is classed as functional, cell-based.
The nature of test [26]: P. falciparum Dd2 growth inhibitors, dose response, SYBR Green, cherry-picked samples (AID 1159567). The test is classed as functional, cell-based.
The nature of test [27]: MC4R antagonists, dose response, counter-screen for LGR2 antagonist project, cell-based, plate reader, cherry pick (AID 743444).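 Also: transfected HEK 293 cells stimulated with alpha-MSH peptide; potency of inhibitors of the alpha-MSH evoked signal.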 Type of test: functional.
The target in the next test is Paired box protein Pax-8 (Homo sapiens, UniProt Q06710). The experiment in a line: inhibitors of PAX8-driven TPO luciferase reporter, dose response, RMG-I cells, cherry-pick (AID 687027).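 Also: luciferase reporter driven by Pax8 target thyroperoxidase promoter measured by SteadyGlo luminescence.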 Type of test: functional, cell-based.
Paired box protein Pax-8, sequence (Q06710 whole entry): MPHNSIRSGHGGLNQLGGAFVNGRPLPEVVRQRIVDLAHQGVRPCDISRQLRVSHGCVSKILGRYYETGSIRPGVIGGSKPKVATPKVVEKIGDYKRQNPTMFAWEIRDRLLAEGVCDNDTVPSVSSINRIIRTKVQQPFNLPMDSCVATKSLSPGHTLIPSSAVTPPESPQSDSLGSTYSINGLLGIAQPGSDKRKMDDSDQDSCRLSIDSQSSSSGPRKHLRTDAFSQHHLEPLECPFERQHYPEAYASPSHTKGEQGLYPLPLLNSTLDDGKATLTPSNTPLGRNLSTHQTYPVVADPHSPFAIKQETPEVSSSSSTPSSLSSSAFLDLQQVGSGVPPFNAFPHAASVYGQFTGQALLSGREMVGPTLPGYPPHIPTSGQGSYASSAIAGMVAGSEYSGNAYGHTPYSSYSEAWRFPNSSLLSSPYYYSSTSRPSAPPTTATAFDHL
Test [28] can be described thus: HepG2 cell cytotoxicity, dose response, cytotoxicity control, plate reader, dry powder samples (AID 1159569).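 Also: inhibitor potency with signal falling toward the positive control level.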 The test is classed as functional, cell-based.
A short description of test [29]: IOSE-T80 ovarian epithelial cell cytotoxicity, dose response, cytotoxicity control for PAX8 inhibitor project, plate reader, dry powder samples (AID 743045). The test is classed as functional, cell-based.
A short description of test [30]: A2780 ovarian cancer cell cytotoxicity, dose response, cytotoxicity control, plate reader, dry powder samples (AID 743046). The test is classed as functional, cell-based.
Test [31] in a line: A549 cell cytotoxicity, dose response, cytotoxicity control, 24 h, CellTiter-Glo luminescence, cherry-picks (AID 1053115). The test is classed as functional, cell-based. The conditions noted are these: A549, 24 h.
The nature of test [32]: A375 melanoma cell cytotoxicity, dose response, counter-screen for MITF inhibitor project, CellTiter-Glo luminescence, dry powder, set 2 (AID 624489).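 Also: actives are compounds lowering A375 viability meaning general cytotoxicity.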 Type of test: functional, cell-based. The settings on record: A-375.
The nature of test [33]: A375 melanoma cell viability loss, dose response, counter-screen for MITF inhibitor project, CellTiter-Glo luminescence, dry powder, set 4 (AID 624364).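 Also: A375 melanoma cells are MITF independent so this is a counter screen.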 Type of test: functional, cell-based. The conditions noted are these: A-375.

As usually defined, the AC50 is the concentration at which the activity in the assay is half-maximal.

Active and inactive are the calls of the source.

As to `COc1cc(CCc2ccccc2)c(C(=O)O)c(O)c1C/C=C(/C)CCC=C(C)C`, the IC50 in test [1] was < 0.368 µM (active); in test [2], 17.8 µM (active); on Fatty acid synthase [3] it was 8.42 µM (active); in [4], 3.5 µM (active); in test [5] it was 3.79 µM (active); at Fatty acid synthase [6], 8.25 µM (active). The IC50 is 15.5 µM (active) in test [7], 14.4 µM (active) in [8] and 28.8 µM (inactive) in test [10]. Besides, the concentration at half-maximal activity (AC50) in test [9] is 15.7 µM (active). The EC50 in test [11] was > 53 µM (inactive).
On to `Cc1ccc(NC(=O)CN(C)C(=O)CCSc2ccc(F)cc2)cc1`, for which the IC50 is > 83.3 µM (inactive) in test [12], 83.3 µM (inactive) in [13], 3.09 µM (active) in test [14] and 4.57 µM (active) in [15].
For the compound `O=C(C1CC1)N1C[C@@H]2N[C@H](C1)[C@@H]2c1ccc(-c2cccc(F)c2)cc1`, the AC50 in test [16] was 28.1 µM (active); in test [17] it was 12.5 µM (active); in test [18], 19.6 µM (active); in [19] it was 27 µM (active); in test [20], 0.9 µM (active); in [21] it was 26.7 µM (active). Further, the AC50 in test [22] is 0.778 µM (active); in test [23], 3.9 µM (active); in test [24], 21.2 µM (active); in test [25], 1.04 µM (active); in test [26], 2.2 µM (active); in [27] it was 6.56 µM (active). Moreover, the values for the AC50 (on Paired box protein Pax-8; in [28]; in test [29]) were 6.38 µM (active), 23.2 µM (active) and 21.1 µM (active), respectively.
As for `COc1ccc(S(=O)(=O)Nc2ccc3c(c2)C(=O)N([C@H](C)CO)C[C@@H](C)[C@@H](CN(C)Cc2ccc(C(F)(F)F)cc2)OCCCC[C@@H](C)O3)cc1`, the AC50 in [30] is 51.2 µM (active); in [19], 27.9 µM (active); in test [21], 65.2 µM (active); in test [24], 30.6 µM (active); on Paired box protein Pax-8, 7.09 µM (active).
With `CCOC(=O)[C@@H]1[C@@H]2C=C[C@]3(O2)[C@H](C(=O)NCc2ccccc2)N(CCCCCCO)C(=O)[C@@H]13`, the AC50 in test [31] was 48.1 µM (active).
For `C=CCNC1=C(N2CCOCC2)C(=O)c2ccccc2C1=O`, the AC50 was 9.04 µM (active) in test [32] and 34.1 µM (active) in test [33].

The record behind these values is ChEMBL document CHEMBL1201862, “PubChem BioAssay data set” (2004).
